One assay deals with SMMC-7721. Put plainly: Cytotoxicity against human SMMC7721 cells assessed as cell growth inhibition after 48 hrs by MTT assay. The format is functional, cell-based. Conditions: SMMC-7721, 48 h. (Tetrazolium dyes change colour on reduction, which living cells bring about.)
Another assay concerns HepG2. Put plainly: Cytotoxicity against human HepG2 cells assessed as cell growth inhibition after 48 hrs by MTT assay. The format is functional, cell-based. Conditions: HepG2, 48 h.
The nature of assay [1]: Cytotoxicity against human QSG7701 cells assessed as cell growth inhibition after 48 hrs by MTT assay. The format is cell-based. The settings on record: QSG7701, 48 h.
Assay [2] concerns H22. Put plainly: Antitumor activity against […] xenografted in Kunming mouse assessed as suppression of tumor weight at 5 mg/kg, iv dosed every day starting from day 8 after tumor cell inoculation. The format is functional. In general terms: A xenograft is tissue or cells of one species grown in another, often human tumour cells in immunodeficient mice.
For assay [3], the system named is H22. Put plainly: Antimetastatic activity against […] xenografted in pulmonary metastasis Kunming mouse model assessed as reduction in tumor metastatic nodules at 5 mg/kg, iv dosed every day starting from day 8 after tumor cell inoculation. The format is functional. Also noted: scale not given: the % may be the effect or the level left.

SMILES strings stand for the structures.

As a reminder, the IC50 is the concentration at which inhibition is half-maximal. In the case of `O=C1c2cccc3c(-c4cc(=O)c5ccccc5o4)ccc(c23)C(=O)N1CCCN1CCOCC1`, the IC50 is 31.6 µM in the assay on SMMC-7721, more than 50 µM in the assay on HepG2 and 47.7 µM in assay [1].

As for `O=C1c2cccc3c(-c4cc(=O)c5ccccc5o4)ccc(c23)C(=O)N1CCCCN1CCNCC1`, the IC50 in the assay with SMMC-7721 amounted to 16.6 µM; in the assay with HepG2, 15.5 µM; in assay [1], 16.9 µM.

On to `CN(C)CCN1C(=O)c2cccc3cc(N)cc(c23)C1=O` [AMONAFIDE], for which the IC50 in the assay with SMMC-7721 came to 9.95 µM; in the assay on HepG2, 10.1 µM; in assay [1] it was 7.84 µM. Besides, the Activity is on record as 48.1% with H22 [2] and 41.4% with H22 [3].

Regarding `NCCCNCCCNCCCN1C(=O)c2cccc3c(-c4cc(=O)c5ccccc5o4)ccc(c23)C1=O`, the 50% inhibitory concentration (IC50) came out at 11.3 µM in the assay with SMMC-7721, 14.7 µM in the assay with HepG2 and 17.4 µM in assay [1].

Regarding `CCCCNCCCCN1C(=O)c2cccc3c(-c4cc(=O)c5ccccc5o4)ccc(c23)C1=O`, the IC50 in the assay with SMMC-7721 amounted to 10.9 µM; with HepG2, 10.1 µM; in assay [1] it was 16.1 µM.

In the case of `CCCCN(CCCC)CCCN1C(=O)c2cccc3c(-c4cc(=O)c5ccccc5o4)ccc(c23)C1=O`, the figures for the IC50 (with SMMC-7721; in the assay with HepG2; in assay [1]) were 16.5 µM, 18.9 µM and more than 50 µM, respectively.

Take `NCCCCNCCCN1C(=O)c2cccc3c(-c4cc(=O)c5ccccc5o4)ccc(c23)C1=O`: the IC50 with SMMC-7721 amounted to 11.1 µM; in the assay with HepG2, 9.84 µM; in assay [1], 41.8 µM.

Take `O=C1c2cccc3c(-c4cc(=O)c5ccccc5o4)ccc(c23)C(=O)N1CCCN1CCNCC1`: the IC50 was 43.5 µM with SMMC-7721, more than 50 µM in the assay on HepG2 and 34.7 µM in assay [1].

Values taken from ChEMBL document CHEMBL4007412, “Design, Synthesis, and Biological Evaluation of Mitochondria-Targeted Flavone-Naphthalimide-Polyamine Conjugates with Antimetastatic Activity” (J Med Chem, 2017).
